Values of other authors as cited in US12465592B2, “Structured encapsulated silicon-containing particles” (SISAF LIMITED, priority 2019, dated 2025).

aqueous solubility: < 1 µg/mL
SMILES: Clc1ccc(COC(Cn2ccnc2)c2ccc(Cl)cc2Cl)c(Cl)c1 (stereo not shown) [Miconazole]
